Data from PubChem BioAssay (NCI).
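48-hour exposure; five concentrations; linearly interpolated endpoints. At the GI50, growth is halved. TGI is the concentration that stops growth completely.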

Assays:
Assay in all cases: NCI tumour cell line growth inhibition, 48 h
[1] = test system: SR leukemia
[2] = test system: DU-145 prostate
[3] = test system: SNB-75 CNS
[4] = test system: SF-268 CNS
[5] = test system: A498 renal
[6] = test system: MALME-3M melanoma
[7] = test system: SF-539 CNS
[8] = test system: U251 CNS
[9] = test system: OVCAR-4 ovarian
[10] = test system: OVCAR-5 ovarian
[11] = test system: MDA-MB-231 breast
[12] = test system: T-47D breast
[13] = test system: NCI-H23 lung
[14] = test system: CCRF-CEM leukemia
[15] = test system: SN12C renal
[16] = test system: SW-620 colon
[17] = test system: HOP-62 NSCLC
[18] = test system: SNB-19 CNS
[19] = test system: K-562 leukemia
[20] = test system: MDA-MB-435
[21] = test system: SK-MEL-28 melanoma
[22] = test system: 786-0 renal
[23] = test system: KM12 colon
[24] = test system: BT-549 breast
[25] = test system: NCI-H522 lung
[26] = test system: UACC-257 melanoma
[27] = test system: UO-31 renal
[28] = test system: HL-60(TB) leukemia
[29] = test system: HCT-116 colon
[30] = test system: SK-MEL-5 melanoma
[31] = test system: UACC-62 melanoma
[32] = test system: LOX IMVI melanoma
[33] = test system: IGROV1 ovarian
[34] = test system: NCI/ADR-RES ovarian
[35] = test system: HCT-15 colon
[36] = test system: TK-10 renal
[37] = test system: CAKI-1 renal
[38] = test system: COLO 205 colon
[39] = test system: ACHN renal
[40] = test system: EKVX NSCLC
[41] = test system: A549 NSCLC
[42] = test system: HS 578T breast
[43] = test system: SK-MEL-2 melanoma
[44] = test system: HT29 colon
[45] = test system: RPMI-8226 leukemia
[46] = test system: MOLT-4 leukemia
[47] = test system: MCF7 breast
[48] = test system: NCI-H226 lung
[49] = test system: SK-OV-3 ovarian
[50] = test system: M14 melanoma
[51] = test system: OVCAR-3 ovarian
[52] = test system: SF-295 CNS
[53] = test system: NCI-H460 lung
[54] = test system: OVCAR-8 ovarian
[55] = test system: PC-3 prostate
[56] = test system: HOP-92 NSCLC

**Q.** `COc1ccc(N2CCN(C(=O)c3ccc(C(F)(F)F)nc3Nc3cc(Cl)ccc3C)CC2)cc1` was tested. Which GI50 [1] did it give?
**A.** Its GI50 is 4.65 µM.

**Q.** What about the TGI [1] of the same compound?
**A.** Its TGI is 39 µM.

**Q.** What about the GI50 [2] of the same compound?
**A.** Its GI50 is 14.7 µM.

**Q.** What about the TGI [2] of the same compound?
**A.** Its TGI is 31 µM.

**Q.** What about the GI50 [3] of the same compound?
**A.** Its GI50 is 3.66 µM.

**Q.** What about the TGI [3] of the same compound?
**A.** The TGI was 22.6 µM.

**Q.** What about the GI50 [4] of the same compound?
**A.** Its GI50 is 7.04 µM.

**Q.** And the TGI [4]?
**A.** Its TGI is 22.4 µM.

**Q.** And the GI50 [5]?
**A.** The GI50 was 6.01 µM.

**Q.** What about the TGI [5] of the same compound?
**A.** Its TGI is 19.8 µM.

**Q.** And the GI50 [6]?
**A.** Its GI50 is 10.6 µM.

**Q.** What about the TGI [6] of the same compound?
**A.** Its TGI is 28.4 µM.

**Q.** What about the GI50 [7] of the same compound?
**A.** Its GI50 is 10.7 µM.

**Q.** And the TGI [7]?
**A.** Its TGI is 24.7 µM.

**Q.** And the GI50 [8]?
**A.** Its GI50 is 9.37 µM.

**Q.** And the TGI [8]?
**A.** Its TGI is 21.2 µM.

**Q.** What about the GI50 [9] of the same compound?
**A.** Its GI50 is 7.83 µM.

**Q.** What about the TGI [9] of the same compound?
**A.** Its TGI is 29.9 µM.

**Q.** What about the GI50 [10] of the same compound?
**A.** The GI50 was 10.6 µM.

**Q.** And the TGI [10]?
**A.** The TGI was 25.1 µM.

**Q.** And the GI50 [11]?
**A.** Its GI50 is 4.09 µM.

**Q.** And the TGI [11]?
**A.** The TGI was 15.6 µM.

**Q.** And the GI50 [12]?
**A.** The GI50 was 2800 nM.

**Q.** What about the TGI [12] of the same compound?
**A.** Its TGI is 26.2 µM.

**Q.** And the GI50 [13]?
**A.** The GI50 was 9.12 µM.

**Q.** And the TGI [13]?
**A.** The TGI was 23.9 µM.

**Q.** What about the GI50 [14] of the same compound?
**A.** The GI50 was 8.79 µM.

**Q.** What about the TGI [14] of the same compound?
**A.** Its TGI is 38.5 µM.

**Q.** And the GI50 [15]?
**A.** Its GI50 is 11.8 µM.

**Q.** And the TGI [15]?
**A.** The TGI was 24.4 µM.

**Q.** What about the GI50 [16] of the same compound?
**A.** The GI50 was 10.5 µM.

**Q.** And the TGI [16]?
**A.** Its TGI is 22.4 µM.

**Q.** And the GI50 [17]?
**A.** Its GI50 is 13.2 µM.

**Q.** What about the TGI [17] of the same compound?
**A.** The TGI was 25.9 µM.

**Q.** And the GI50 [18]?
**A.** The GI50 was 9.17 µM.

**Q.** And the TGI [18]?
**A.** The TGI was 22.5 µM.

**Q.** What about the GI50 [19] of the same compound?
**A.** Its GI50 is 4.76 µM.

**Q.** And the TGI [19]?
**A.** Its TGI is 22.8 µM.

**Q.** And the GI50 [20]?
**A.** Its GI50 is 11.2 µM.

**Q.** And the TGI [20]?
**A.** The TGI was 27.5 µM.

**Q.** And the GI50 [21]?
**A.** The GI50 was 14 µM.

**Q.** What about the TGI [21] of the same compound?
**A.** Its TGI is 30.3 µM.

**Q.** And the GI50 [22]?
**A.** The GI50 was 4.47 µM.

**Q.** What about the TGI [22] of the same compound?
**A.** The TGI was 16.8 µM.

**Q.** What about the GI50 [23] of the same compound?
**A.** The GI50 was 6.91 µM.

**Q.** And the TGI [23]?
**A.** Its TGI is 20.8 µM.

**Q.** What about the GI50 [24] of the same compound?
**A.** Its GI50 is 10.2 µM.

**Q.** What about the TGI [24] of the same compound?
**A.** The TGI was 23.7 µM.

**Q.** And the GI50 [25]?
**A.** Its GI50 is 3.38 µM.

**Q.** What about the TGI [25] of the same compound?
**A.** The TGI was 22.3 µM.

**Q.** What about the GI50 [26] of the same compound?
**A.** The GI50 was 10.7 µM.

**Q.** What about the TGI [26] of the same compound?
**A.** Its TGI is 28.3 µM.

**Q.** And the GI50 [27]?
**A.** The GI50 was 1690 nM.

**Q.** And the TGI [27]?
**A.** The TGI was 10.9 µM.

**Q.** And the GI50 [28]?
**A.** The GI50 was 6.94 µM.

**Q.** What about the TGI [28] of the same compound?
**A.** The TGI was 28.6 µM.

**Q.** What about the GI50 [29] of the same compound?
**A.** Its GI50 is 6.38 µM.

**Q.** What about the TGI [29] of the same compound?
**A.** Its TGI is 19 µM.

**Q.** What about the GI50 [30] of the same compound?
**A.** Its GI50 is 8.02 µM.

**Q.** And the TGI [30]?
**A.** The TGI was 20.8 µM.

**Q.** What about the GI50 [31] of the same compound?
**A.** Its GI50 is 8.15 µM.

**Q.** And the TGI [31]?
**A.** Its TGI is 20.8 µM.

**Q.** What about the GI50 [32] of the same compound?
**A.** The GI50 was 10.4 µM.

**Q.** What about the TGI [32] of the same compound?
**A.** The TGI was 22.1 µM.

**Q.** And the GI50 [33]?
**A.** Its GI50 is 50.9 nM.

**Q.** What about the TGI [33] of the same compound?
**A.** The TGI was 20.3 µM.

**Q.** And the GI50 [34]?
**A.** Its GI50 is 10.1 µM.

**Q.** And the TGI [34]?
**A.** Its TGI is 27.3 µM.

**Q.** What about the GI50 [35] of the same compound?
**A.** Its GI50 is 7.71 µM.

**Q.** What about the TGI [35] of the same compound?
**A.** Its TGI is 21.2 µM.

**Q.** And the GI50 [36]?
**A.** Its GI50 is 15 µM.

**Q.** And the TGI [36]?
**A.** Its TGI is 34.6 µM.

**Q.** And the GI50 [37]?
**A.** The GI50 was 1380 nM.

**Q.** And the TGI [37]?
**A.** The TGI was 8.36 µM.

**Q.** And the GI50 [38]?
**A.** The GI50 was 11.4 µM.

**Q.** And the TGI [38]?
**A.** The TGI was 26.2 µM.

**Q.** What about the GI50 [39] of the same compound?
**A.** Its GI50 is 7.78 µM.

**Q.** And the TGI [39]?
**A.** The TGI was 31.1 µM.

**Q.** What about the GI50 [40] of the same compound?
**A.** The GI50 was 2670 nM.

**Q.** What about the TGI [40] of the same compound?
**A.** Its TGI is 21.1 µM.

**Q.** What about the GI50 [41] of the same compound?
**A.** Its GI50 is 10.2 µM.

**Q.** And the TGI [41]?
**A.** The TGI was 27.7 µM.

**Q.** What about the GI50 [42] of the same compound?
**A.** The GI50 was 4.09 µM.

**Q.** And the TGI [42]?
**A.** The TGI was 22.1 µM.

**Q.** What about the GI50 [43] of the same compound?
**A.** The GI50 was 949 nM.

**Q.** And the TGI [43]?
**A.** Its TGI is 19 µM.

**Q.** And the GI50 [44]?
**A.** The GI50 was 4.45 µM.

**Q.** And the TGI [44]?
**A.** The TGI was 18 µM.

**Q.** What about the GI50 [45] of the same compound?
**A.** The GI50 was 7.46 µM.

**Q.** What about the TGI [45] of the same compound?
**A.** Its TGI is 49.2 µM.

**Q.** And the GI50 [46]?
**A.** The GI50 was 4.49 µM.

**Q.** And the TGI [46]?
**A.** The TGI was 29.6 µM.

**Q.** What about the GI50 [47] of the same compound?
**A.** The GI50 was 2880 nM.

**Q.** What about the TGI [47] of the same compound?
**A.** Its TGI is 21 µM.

**Q.** What about the GI50 [48] of the same compound?
**A.** Its GI50 is 14.3 µM.

**Q.** What about the TGI [48] of the same compound?
**A.** Its TGI is 36.3 µM.

**Q.** What about the GI50 [49] of the same compound?
**A.** The GI50 was 4.67 µM.

**Q.** What about the TGI [49] of the same compound?
**A.** The TGI was 22.1 µM.

**Q.** What about the GI50 [50] of the same compound?
**A.** Its GI50 is 10.6 µM.

**Q.** What about the TGI [50] of the same compound?
**A.** The TGI was 22.6 µM.

**Q.** And the GI50 [51]?
**A.** The GI50 was 2980 nM.

**Q.** And the TGI [51]?
**A.** The TGI was 19 µM.

**Q.** And the GI50 [52]?
**A.** The GI50 was 9.78 µM.

**Q.** And the TGI [52]?
**A.** Its TGI is 27.9 µM.

**Q.** And the GI50 [53]?
**A.** Its GI50 is 6.11 µM.

**Q.** What about the TGI [53] of the same compound?
**A.** The TGI was 21 µM.

**Q.** What about the GI50 [54] of the same compound?
**A.** The GI50 was 11.3 µM.

**Q.** And the TGI [54]?
**A.** Its TGI is 38.7 µM.

**Q.** What about the GI50 [55] of the same compound?
**A.** Its GI50 is 5.44 µM.

**Q.** And the TGI [55]?
**A.** Its TGI is 32.7 µM.

**Q.** And the GI50 [56]?
**A.** The GI50 was 1490 nM.

**Q.** And the TGI [56]?
**A.** The TGI was 7.97 µM.
